Test results published in patent publication US8962003B2, “Insect behaviour modifying compounds” (The New Zealand Institute for Plant and Food Research …, priority 2003, dated 2015).

What was measured:
[1] = system: Thrips hawaiiensis; conditions: field trials; cited from earlier work
[2] = system: Thrips coloratus; conditions: field trials; cited from earlier work
[3] = system: Thrips flavus; conditions: cited from earlier work
[4] = system: Thrips tabaci; conditions: cited from earlier work
[5] = system: Frankliniella occidentalis; experiment: Y-tube olfactometer bioassay; assay type: in vivo; conditions: female Frankliniella occidentalis; for MAC (%) = Minimum Active Concentration to elicit a response from thrips (P < 0.05): 1 µl undiluted or diluted in hexane; for % Response: percentage of thrips to walk up odour-laden arm: same cell prints a '(t value)' in brackets
Protocol: The thrips behaviour-modifying activity of a compound may be evaluated in a glass Y-tube olfactometer following the method described by de Kogel et al. (de Kogel, W. J., Koschier, E. H. and Visser, J. H. Proc. Exper. & Appl. Entomol., N. E. V. Amsterdam, (1999) 10, 131-135.) and Koschier et al. (Koschier, E. H., De Kogel, W. J. and Visser, J. H. (2000) Jounrnal of Chemical Ecology, 26, 2643-2655).
The olfactory behaviour of thrips toward volatile compounds was evaluated in a glass Y-tube olfactometer following the method described by de Kogel et al. (de Kogel, W. J., Koschier, E. H. and Visser, J. H. Proc. Exper. & Appl. Entomol., N. E. V. Amsterdam, (1999) 10, 131-135.) and Koschler et al. (Koschier, E. H., De Kogel, W. J. and Visser, J. H. (2000) Journal of Chemical Ecology, 26, 2643-2655.). The Y-tube has two branching arms at an angle of 45° leading into a single tube, all 60 mm long, with an internal diameter of 5 mm. The arms of the Y-tube were connected to glass Wheaton Micro Kit® adapters that were in turn attached to 4 ml glass vials each containing a 1 cm^2 piece of filter paper (Whatman No. 1). The Y-tube and Wheaton apparatus were placed in a grey-box (to prevent external stimuli influencing thrips' behaviour), located in a darkened, air-conditioned room (22±3° C.). The Y-tube was placed at an inclining position of 25° between the Y-tube and horizontal plane and illuminated from above by a halogen lamp (780 lux). One microliter of the volatile compounds, either undiluted or diluted in hexane (95%, Pronalys AR), was applied to filter paper in one vial, while 1 μl of hexane was applied to filter paper held in the second vial. Air was drawn through activated charcoal before entering the Wheaton apparatus and Y-tube using a suction pump (AR Harris Co. Ltd, Christchurch) producing an airflow of 5 cm/s through each arm and 10 cm/s at the base of the Y-tube. Air was drawn through for 30 min before introducing the first thrips. Connections between the activated charcoal, Wheaton apparatus, Y-tube and suction pump consisted of silicone tubing.
An individual female Frankliniella occidentalis thrips of unknown age, that had been starved overnight, was released into the Y-tube using a small aspirator. The aspirator was made by placing a 1 ml pipette tip over the end of silicone tubing (5 mm diameter) the end of which was covered with fine mesh; the pipette tip was cut so it projected 5 mm beyond the end of the silicone tubing. A thrips was sucked up into the pipette tip, which was then placed at the base of the Y-tube. Most thrips walked up into the Y-tube within a few seconds, at which time the silicone air suction tubing was reconnected to the glass Y. The choice between clean or odour laden airflow was recorded when the thrips reached the far end of one arm and only those thrips that made the choice within 3 min were recorded. After every 5 thrips the Y-tube and Wheaton apparatus were rotated […] to avoid position effects. After 25 choices were recorded, the Y-tube and Wheaton apparatus were thoroughly cleaned with acetone (99.5%, BDH) and allowed to dry before repeating the experiment. Each compound and dilution was replicated 3 times.

[6] = system: Frankliniella occidentalis; experiment: Greenhouse trials with water traps or yellow sticky traps; assay type: in vivo; conditions: 24 h, capsicum greenhouse, t-value in brackets in same cell
Text: Greenhouse trials were undertaken using water traps similar to those used in the field trials (Example 2), or yellow sticky traps (Veg-Gro Supplies Ltd, Auckland) to examine the response of thrips to volatile compounds. The greenhouse, located in Auckland, is ≈88×200 m, constructed of glass, and is used to grow capsicum (Capsicum annuum var. Special, Fiesta, Boogie and Stirit). Water traps were placed 20 to 24 m apart within a row and 24 m apart between rows. There were 6 baited water traps for each compound tested and 6 water-only traps randomly positioned in a 6×2 grid in the greenhouse. Traps were positioned just above the crop canopy. Water traps (2 L containers, 16×16×8.5 cm) were assembled as described in Example 2 and left in the greenhouse for 24 h, after which time the containers were sealed for transport to a laboratory. Insects from each water trap were transferred to 5 ml glass tubes containing 75% ethanol within 24 h of collecting them from the greenhouse. Catches from each treatment were analysed under a stereomicroscope (100×) and the proportion of Frankliniella occidentalis was determined.
Yellow sticky traps (24.4×20 cm) were treated with a compound or water using a 30 ml spray mist dripulator (Arthur Holmes, Wellington) held 10 cm away from the sticky trap. Four sprays were applied to each side, coating the sticky trap in approximately 1 ml of water or compound. Sticky traps sprayed with the same treatment were separated using black metal foldback clips (19 mm, Celco), suspended within a cardboard box (29.5×22.3×30.2 cm), which was in turn sealed within a plastic bag for transport to the greenhouse. Traps were suspended in the greenhouse just above the crop canopy within 3 h after spraying, using the same layout as for the water traps (20 to 24 m apart within a row, 24 m between rows, in a 6×2 grid). After 24 h the traps were collected by wrapping each trap in plastic wrap for transport to the laboratory. The total number of thrips on the traps were counted using 10× magnification. Thrips were removed from the sticky traps using De-Solv-it® and Johnsons baby oil®. A subsample from each treatment was further analysed under a stereomicroscope (100×) and the proportion of Frankliniella occidentalis was determined.

[7] = system: Thrips obscuratus; conditions: Penman et al. 1982; cited from earlier work
[8] = system: Frankliniella occidentalis; conditions: literature; anisaldehyde with blue sticky or yellow water traps; WO 03/055309 Y-tube; cited from earlier work
[9] = system: Thrips obscuratus; experiment: Field trials with baited water traps; assay type: in vivo; conditions: female Thrips obscuratus; field water traps, 1 ml compound, 24 or 48 h; * = P < 0.05 vs control trap; brackets = backtransformed 95% CI
Text: (§1) Water traps were placed out into a field comprising several species of grasses, white clover (Trifolium repens L.) and several weed species (≈100 mm in height). Grass and cereal fields surrounded the field trial area on three sides and poplar (Poplar nigra L.) trees on the other, on the Canterbury Agricultural Research Centre campus. Each field trial consisted of five replicates of five treatments including a water control, positive control compound (ethyl nicotinate, ethyl isonicotinate, or benzaldehyde, Table 1) and three test compounds set out in the field in a grid (10×10 m) using a Latin square design with the trial area at least 100 m from the field boundary/shelter belt. White plastic containers (2 L capacity, 16×16×8.5 cm) containing approximately 1.7 L water, 0.4 ml of formalin (to prevent fungal growth) and 0.08 ml tween were placed above the crop canopy on inverted white (2 L capacity, 16×16×8.5 cm) or black plastic containers (24 cm diameter, 13 cm tall). For each treatment, 1 ml of a compound or water was added to a glass vial (12×32 mm screw thread vial) containing a 4.5 cm^2 piece of rolled filter paper (Whatman No. 1) that projected 1 cm above the top of the vial, creating a wick. The glass vial was suspended above the water in the centre of the trap using wire (0.5 mm diameter). The vials were removed after 24 or 48 h and the containers were sealed for transport to a laboratory. The contents from a water trap were poured through a sieve (250 μm mesh) and all insects were washed into a 50 ml Schott bottle within 24 h of collecting them from the field. All thrips were pipetted from each water trap sample and counted. Thrips were mounted on to slides using polyvinyl alcohol glue (1 part polyvinyl alchol: 4 parts water, 1 part lactic acid: 1.25 parts phenyl) from each trap using the following subsample method: less than 50 thrips, all thrips were mounted on to a slide; 50 to 100 thrips, a subsample of 25 thrips were mounted on to a slide; more than 100 thrips, a subsample of 50 thrips were mounted on to a slide. The slides were examined under 100× magnification using a compound microscope to identify thrips species. Subsampled thrips were sexed and identified to species according to Mound and Walker (Mound, L. A. and Walker, A. K. 1982. Terebrantia (Insecta: Thysanoptera). Fauna of New Zealand No. 1.). The mean number of each species for each treatment was calculated by multiplying the proportion of each species within a subsample with the total number of thrips counted in each water trap.

[10] = system: Thrips tabaci; experiment: Field trials with baited water traps; assay type: in vivo; conditions: field trials (Table 1)
Text: as §1

[11] = Yellow sticky trap, about 1 ml sprayed, >95% of thrips caught were Frankliniella occidentalis

Row | Structure (SMILES) | Attractancy to Thrips hawaiiensis (literature) [1] | Attractancy to Thrips coloratus (literature) [2] | Attractancy to Thrips flavus (literature) [3] | Attractancy to Thrips tabaci (literature) [4] | MAC (%) = Minimum Active Concentration to elicit a response from thrips (P < 0.05) [5] | % Response: percentage of thrips to walk up odour-laden arm [5] | Average ratio of thrips caught relative to water treated traps ([6]; Water trap, around 66% of thrips caught were Frankliniella occidentalis) | Average ratio of thrips caught relative to water treated traps [6, 11] | Attractancy to Thrips obscuratus (literature) [7] | Attractancy to Frankliniella occidentalis (literature) [8] | Average ratio of female thrips caught relative to water traps (95% CI) [9] | Attractancy to Thrips tabaci (in words) [10]
1 | CCOC(=O)c1ccccc1N [ethyl anthranilate] | attractant | attractant | attractant |  |  |  |  |  |  |  |  | 
2 | COC(=O)c1ccccc1N [methyl anthranilate] | attractant | attractant |  | not for Thrips tabaci |  |  |  |  |  |  |  | 
3 | CCOC(=O)c1cccnc1 [Ethyl nicotinate, reference compound] |  |  |  | varied in its attractiveness | 0.01% | 60.0 (0.043) % | 1 (0.1) | 1.1 (0.4) | potent attractant | less attractive |  | 
4 | CC(=O)c1ccncc1 [Methyl 4-pyridyl ketone] |  |  |  |  | 0.001% | 77.3 (<0.001) % |  | 3.1 (6.6) |  |  | 0 (0.0, >1000) | attractants
